Source: article PMC6853154 (Clinical and Translational Science, 2019)
“Also recorded” adds a separate entry of the source. Where two headings read alike, the source gives them in different places.

Legend:
[1] = format: in vivo, human; settings: for AUC(0-inf) / Cmax / Tmax / half-life: human, plasma, po; for AUC0–∞, mean percent change / Cmax, mean percent change / t1/2, mean percent change: multiple doses vs single dose of efavirenz
[2] = target: T1, CYP1A2 (Homo sapiens, UniProt P05177); settings: human liver microsomal preparations and/or expressed enzymes; cited from earlier work
T1 sequence (P05177 1-516): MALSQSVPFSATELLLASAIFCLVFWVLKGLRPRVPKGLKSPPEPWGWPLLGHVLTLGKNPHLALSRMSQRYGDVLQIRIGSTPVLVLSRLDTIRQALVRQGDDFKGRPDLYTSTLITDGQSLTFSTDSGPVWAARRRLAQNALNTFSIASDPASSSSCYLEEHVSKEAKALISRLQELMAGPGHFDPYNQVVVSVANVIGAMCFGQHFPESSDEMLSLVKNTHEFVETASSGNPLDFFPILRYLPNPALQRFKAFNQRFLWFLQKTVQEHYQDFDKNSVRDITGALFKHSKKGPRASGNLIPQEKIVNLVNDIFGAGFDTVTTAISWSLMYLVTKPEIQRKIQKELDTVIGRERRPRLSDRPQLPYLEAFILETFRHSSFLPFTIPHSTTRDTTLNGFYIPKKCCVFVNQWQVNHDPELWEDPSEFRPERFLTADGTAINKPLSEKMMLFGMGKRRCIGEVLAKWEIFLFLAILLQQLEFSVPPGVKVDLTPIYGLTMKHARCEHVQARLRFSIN

[3] = target: T1, CYP1A2; assay: In vivo CYP1A2 activity from plasma paraxanthine/caffeine metabolic ratio
[4] = target: T1, CYP1A2; assay: In vivo CYP1A2 activity from urinary caffeine metabolic ratio
[5] = test system: CYP2A6; assay: In vivo CYP2A6 activity from urinary caffeine metabolic ratio; set-up: species or system human
[6] = target: xanthine oxidase (XO) (Homo sapiens, UniProt P47989); assay: In vivo xanthine oxidase activity from urinary caffeine metabolic ratio; settings: for XO activity, urinary MR (1 MU)/(1 MX + 1 MU): mean ± SD
Sequence of xanthine oxidase (XO) (P47989 whole entry): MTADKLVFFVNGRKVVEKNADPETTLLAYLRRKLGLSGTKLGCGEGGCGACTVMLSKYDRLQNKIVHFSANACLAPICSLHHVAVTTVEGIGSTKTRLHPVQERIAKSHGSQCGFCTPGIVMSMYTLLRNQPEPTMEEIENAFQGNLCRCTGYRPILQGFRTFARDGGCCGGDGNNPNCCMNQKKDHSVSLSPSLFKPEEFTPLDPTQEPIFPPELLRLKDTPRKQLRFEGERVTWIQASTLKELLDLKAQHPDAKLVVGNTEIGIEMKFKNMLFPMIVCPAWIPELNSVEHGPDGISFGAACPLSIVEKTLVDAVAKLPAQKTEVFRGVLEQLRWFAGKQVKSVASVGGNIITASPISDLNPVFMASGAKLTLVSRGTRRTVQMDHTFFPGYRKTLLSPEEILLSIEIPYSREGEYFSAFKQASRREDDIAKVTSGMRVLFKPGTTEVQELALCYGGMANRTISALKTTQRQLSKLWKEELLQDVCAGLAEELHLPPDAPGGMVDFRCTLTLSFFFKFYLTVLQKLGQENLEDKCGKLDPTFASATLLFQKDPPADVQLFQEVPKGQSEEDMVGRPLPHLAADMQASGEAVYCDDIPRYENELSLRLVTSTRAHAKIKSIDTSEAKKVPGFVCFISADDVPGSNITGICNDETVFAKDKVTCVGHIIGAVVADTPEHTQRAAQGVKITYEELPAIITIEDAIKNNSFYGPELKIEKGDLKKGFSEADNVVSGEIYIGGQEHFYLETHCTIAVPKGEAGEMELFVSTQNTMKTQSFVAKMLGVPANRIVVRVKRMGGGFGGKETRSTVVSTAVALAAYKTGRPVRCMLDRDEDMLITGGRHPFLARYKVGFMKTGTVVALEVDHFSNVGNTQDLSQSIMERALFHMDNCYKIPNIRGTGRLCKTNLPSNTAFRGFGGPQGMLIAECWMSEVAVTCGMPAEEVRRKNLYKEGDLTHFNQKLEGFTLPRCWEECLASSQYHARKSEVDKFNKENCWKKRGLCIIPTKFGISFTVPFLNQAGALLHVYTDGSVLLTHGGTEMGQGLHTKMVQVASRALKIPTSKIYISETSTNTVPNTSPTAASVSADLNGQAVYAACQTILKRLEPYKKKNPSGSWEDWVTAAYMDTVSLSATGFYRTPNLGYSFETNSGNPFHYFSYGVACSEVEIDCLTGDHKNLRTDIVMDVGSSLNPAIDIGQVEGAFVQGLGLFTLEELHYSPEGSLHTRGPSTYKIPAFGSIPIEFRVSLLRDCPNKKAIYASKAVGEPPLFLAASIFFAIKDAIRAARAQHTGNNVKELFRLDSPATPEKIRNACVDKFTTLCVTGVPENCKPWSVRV

[7] = target: T2, N‐acetyltransferase 2 (NAT2) (Homo sapiens, UniProt P11245); assay: In vivo NAT2 activity from urinary caffeine metabolic ratio; settings: for NAT2 activity, urinary MR AFMU/(AFMU + 1 MU + 1 MX): mean ± SD
T2 sequence (P11245 1-290): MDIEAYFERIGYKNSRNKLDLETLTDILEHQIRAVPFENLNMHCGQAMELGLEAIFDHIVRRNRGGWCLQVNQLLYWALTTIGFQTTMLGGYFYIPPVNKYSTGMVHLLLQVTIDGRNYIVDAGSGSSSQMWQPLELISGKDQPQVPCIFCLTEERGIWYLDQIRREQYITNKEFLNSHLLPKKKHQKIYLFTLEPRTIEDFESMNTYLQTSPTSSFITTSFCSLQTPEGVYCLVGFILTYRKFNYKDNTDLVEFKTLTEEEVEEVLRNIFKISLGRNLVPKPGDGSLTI

[8] = cited from earlier work
[9] = test system: CYP2A6; settings: human liver microsomal preparations and/or expressed enzymes; cited from earlier work
[10] = test system: CYP2B6; settings: at therapeutically relevant concentrations; cited from earlier work
[11] = test system: CYP2C8; settings: at therapeutically relevant concentrations; cited from earlier work
[12] = test system: CYP2C19; settings: at therapeutically relevant concentrations; cited from earlier work
[13] = test system: CYP2C9; settings: at therapeutically relevant concentrations; cited from earlier work
[14] = HIV/tuberculosis‐coinfected patients, cited from earlier work
[15] = Efavirenz plasma exposure in healthy volunteers, also by CYP2B6 genotype; settings: following a single dose and multiple doses of efavirenz
[16] = test system: CYP1A2; settings: coadministration of potent CYP1A2 inhibitor; cited from earlier work
[17] = after multiple doses of efavirenz
[18] = chronic efavirenz relative to single‐dose phase
[19] = multiple doses vs single dose of efavirenz
[20] = multiple doses relative to single‐dose efavirenz
[21] = multiple doses of efavirenz (600 mg/day, 17 days)

Cn1c(=O)c2c(ncn2C)n(C)c1=O [Caffeine]
Caffeine AUC0‐∞ by CYP2B6 genotype, in words ([1]; both efavirenz treatment groups, compared with *1/*1 genotype): significantly higher for *6/*6 genotype
AUC(0-inf) [1]: 17300 ± 11600 ng·h/mL
Cmax [1]: 1820 ng/mL
Tmax [1]: 1 h
half-life [1]: 7.61 ± 8.29 h
AUC(0-inf) ([1]; 150 mg): 22700 ± 18400 ng·h/mL
Cmax ([1]; 150 mg): 1900 ng/mL
Tmax ([1]; 150 mg): 1 h
half-life ([1]; 150 mg): 8.87 ± 4.98 h
AUC0–∞, mean percent change [1]: 46.2%
Cmax, mean percent change [1]: 17.4%
t1/2, mean percent change [1]: 32.5%

O=C1Nc2c(O)cc(Cl)cc2[C@@](C#CC2CC2)(C(F)(F)F)O1 [8‐hydroxyefavirenz]
Inhibition/inactivation of CYP1A2 activity in vitro, in words [2]: no effect

O=C1Nc2ccc(Cl)cc2[C@@](C#CC2CC2)(C(F)(F)F)O1 [efavirenz]
Correlation (r s) of CYP1A2 activity with efavirenz AUC0–24 h [3, 17]: −0.61
Correlation (r s) of percent change in CYP1A2 activity with efavirenz AUC0–24 h [3, 17]: −0.41
Decrease of CYP1A2 activity (plasma MRs) [3, 18]: 38%
Interindividual range of percent change in CYP1A2 activity (plasma MRs) ([3]; chronic efavirenz relative to single‐dose phase, 58 subjects): −78.2% to 31.7
CYP1A2 activity, plasma MR, mean percent change [3, 19]: −38.1%
Correlation (r s) of CYP1A2 activity with efavirenz AUC0–∞ ([3]; single 600 mg dose of efavirenz): −0.32
Decrease of CYP1A2 activity measured by urinary MRs [4, 18]: 28.9%
Interindividual range of percent change in urine MR (CYP1A2) [4, 18]: −65.1% to 43.2
CYP1A2 activity, urinary MR, mean percent change [4, 19]: −28.9%
Increase of CYP2A6 activity [5, 20]: 85%
CYP2A6 activity, urinary MR, mean percent change [5, 19]: 85.5%
XO activity, urinary MR (1 MU)/(1 MX + 1 MU) [6, 21]: 0.37 ± 0.16
Effect on XO activity (urinary MR), in words [6, 20]: unaffected; also recorded: not significantly altered
XO activity, urinary MR, mean percent change [6, 19]: 1.1%
XO activity, urinary MR (1 MU)/(1 MX + 1 MU) ([6]; single 600 mg efavirenz dose): 0.37 ± 0.16
NAT2 activity, urinary MR AFMU/(AFMU + 1 MU + 1 MX) [7, 21]: 0.32 ± 0.22
Effect on NAT2 activity (urinary MR), in words [7, 20]: unaffected; also recorded: not significantly altered
NAT2 activity, urinary MR, mean percent change [7, 19]: 4.5%
NAT2 activity, urinary MR AFMU/(AFMU + 1 MU + 1 MX) ([7]; single 600 mg efavirenz dose): 0.31 ± 0.21
Efavirenz exposure (AUC0–24), fold higher in CYP2B6*6/*6 vs CYP2B6*1/*1 ([8]; multiple doses of efavirenz): 2.5 fold
Efavirenz exposure (AUC0–24), fold higher in CYP2B6*6/*6 vs CYP2B6*1/*6 ([8]; multiple doses of efavirenz): 2 fold
Efavirenz exposure (AUC0–∞), fold higher in CYP2B6*6/*6 vs CYP2B6*1/*1 ([8]; single dose of efavirenz): 2.1 fold
Efavirenz exposure (AUC0–∞), fold higher in CYP2B6*6/*6 vs CYP2B6*1/*6 ([8]; single dose of efavirenz): 1.8 fold
Inhibition/inactivation of CYP1A2 activity in vitro, in words [2]: does not inhibit/inactivate; also recorded: neither a reversible inhibitor nor a mechanism‐based (i.e., time‐dependent) inactivator
Inhibition/inactivation of CYP2A6 activity in vitro, in words [9]: does not inhibit/inactivate
Inhibition of CYP2B6 in vitro, in words [10]: directly inhibits
Inhibition of CYP2C8 in vitro, in words [11]: directly inhibits
Inhibition of CYP2C19 in vitro, in words [12]: directly inhibits
Inhibition of CYP2C9 in vitro, in words [13]: directly inhibits
Reduction of model‐predicted exposure of isoniazid by efavirenz ([14]; fast acetylators): 29%
Effect of efavirenz on model‐predicted exposure of isoniazid, in words ([14]; slow acetylators): no effect
Between‐subject differences in efavirenz exposure [15]: Approximately sevenfold

Cn1c(=O)[nH]c2ncn(C)c2c1=O [Paraxanthine, 1,7‐dimethylxanthine]
AUC(0-inf) [1]: 10800 ± 6100 ng·h/mL
Cmax [1]: 504 ± 236 ng/mL
Tmax [1]: 7 h
half-life [1]: 10.8 ± 9.21 h
AUC(0-inf) ([1]; 150 mg): 8600 ± 5800 ng·h/mL
Cmax ([1]; 150 mg): 358 ± 208 ng/mL
Tmax ([1]; 150 mg): 7 h
half-life ([1]; 150 mg): 12.2 ± 7.88 h
AUC0–∞, mean percent change [1]: −8.6%
Cmax, mean percent change [1]: −24.5%
t1/2, mean percent change [1]: 26.3%

COCCCC/C(=N\OCCN)c1ccc(C(F)(F)F)cc1 [fluvoxamine]
Increase of plasma exposure of tizanidine [16]: up to 30 fold
